This note sets out measurements from ChEMBL document CHEMBL1667806, “Synthesis and evaluation of anti-tubercular activity of new dithiocarbamate sugar derivatives” (2011).

Molecules are shown by their SMILES. Converted amounts (≈) assume the structure as drawn.

What all share (assay type): functional
For test [1], the system named is Mycobacterium tuberculosis. As to the kind of experiment: Antimycobacterial activity against RFP-resistant Mycobacterium tuberculosis isolate 8.
Test [2] has as its system Mycobacterium tuberculosis. The test can be described thus: Antimycobacterial activity against INH, RFP, EB-resistant Mycobacterium tuberculosis isolate 12.
Test [3] relates to Mycobacterium tuberculosis. As to the kind of experiment: Antimycobacterial activity against INH, RFP, KM, LVFX, SPFX, CPFX-resistant Mycobacterium tuberculosis isolate 9.
The test system of test [4] is Mycobacterium tuberculosis. The test can be described thus: Antimycobacterial activity against INH, RFP, EB, LVFX, SPFX, CPFX-resistant Mycobacterium tuberculosis isolate 2.
The test system of test [5] is Mycobacterium tuberculosis. As to the kind of experiment: Antimycobacterial activity against INH, RFP, SM, EB, KM, PAS, EVM, LVFX-resistant Mycobacterium tuberculosis isolate 16.
In test [6] the test system is Mycobacterium tuberculosis. As to the kind of experiment: Antimycobacterial activity against INH, RFP, SM, EB-resistant Mycobacterium tuberculosis isolate 13.
The subject of test [7] is Mycobacterium tuberculosis. As to the kind of experiment: Antimycobacterial activity against INH, RFP, EB, LVFX, SPFX, CPFX-resistant Mycobacterium tuberculosis isolate 15.
For test [8], the system named is Mycobacterium tuberculosis. The test can be described thus: Antimycobacterial activity against RFP, EB-resistant Mycobacterium tuberculosis isolate 3.
Test [9] relates to Mycobacterium tuberculosis. The test can be described thus: Antimycobacterial activity against INH, RFP, EB, LVFX, CPFX-resistant Mycobacterium tuberculosis isolate 4.
In test [10] the test system is Mycobacterium tuberculosis. The test can be described thus: Antimycobacterial activity against INH, RFP, EB-resistant Mycobacterium tuberculosis isolate 14.
The test system of test [11] is Mycobacterium tuberculosis. As to the kind of experiment: Antimycobacterial activity against INH, RFP, EB, KM, LVFX, SPFX, CPFX-resistant Mycobacterium tuberculosis isolate 5.
For test [12], the system named is Mycobacterium tuberculosis. As to the kind of experiment: Antimycobacterial activity against INH, RFP, SM, EB, PAS-resistant Mycobacterium tuberculosis isolate 18.
Test [13] deals with Mycobacterium tuberculosis. The test can be described thus: Antimycobacterial activity against INH, RFP, SM, EB, KM, LVFX, SPFX, CPFX-resistant Mycobacterium tuberculosis isolate 6.
For test [14], the system named is Mycobacterium tuberculosis. The test can be described thus: Antimycobacterial activity against INH, RFP, ETH-resistant Mycobacterium tuberculosis isolate 20.
Test [15] concerns Mycobacterium tuberculosis. The test can be described thus: Antimycobacterial activity against RFP-resistant Mycobacterium tuberculosis isolate 7.
Test [16] deals with Mycobacterium tuberculosis. As to the kind of experiment: Antimycobacterial activity against INH, RFP, EB, LVFX, SPFX, CPFX-resistant Mycobacterium tuberculosis isolate 1.
The subject of test [17] is Mycobacterium tuberculosis. As to the kind of experiment: Antimycobacterial activity against INH, RFP, EB, KM, LVFX, SPFX, CPFX-resistant Mycobacterium tuberculosis isolate 11.
In test [18] the test system is Mycobacterium tuberculosis. As to the kind of experiment: Antimycobacterial activity against RFP-resistant Mycobacterium tuberculosis isolate 10.
The test system of test [19] is Mycobacterium tuberculosis. As to the kind of experiment: Antimycobacterial activity against INH, RFP, SM, EB, PAS, LVFX-resistant Mycobacterium tuberculosis isolate 19.
Test [20] concerns Mycobacterium tuberculosis. As to the kind of experiment: Antimycobacterial activity against INH, RFP-resistant Mycobacterium tuberculosis isolate 17.

As to `CC(=O)N[C@@H]1[C@@H](O)[C@H](O)[C@@H](CO)O[C@H]1SC(=S)N1CCCC1`, the MIC in test [1], in [2], in [3], in test [4], in test [5] and in test [6] was 6.25 µg/mL (≈ 17.8 µM) throughout. For the same compound, the MIC (in general, the least concentration at which growth counts as inhibited) in test [7] was 6.25 µg/mL (≈ 17.8 µM); in test [8], 6.25 µg/mL (≈ 17.8 µM); in test [9], 12.5 µg/mL (≈ 35.7 µM); in test [10], 6.25 µg/mL (≈ 17.8 µM); in [11], 6.25 µg/mL (≈ 17.8 µM); in test [12], 6.25 µg/mL (≈ 17.8 µM). Also, the MIC is 6.25 µg/mL (≈ 17.8 µM) in test [13]; 6.25 µg/mL (≈ 17.8 µM) in test [14]; 6.25 µg/mL (≈ 17.8 µM) in [15]; 6.25 µg/mL (≈ 17.8 µM) in test [16]; 12.5 µg/mL (≈ 35.7 µM) in test [17]; 12.5 µg/mL (≈ 35.7 µM) in test [18]. Also, the MIC in test [19] is 12.5 µg/mL (≈ 35.7 µM); in test [20] it was 6.25 µg/mL (≈ 17.8 µM).

Regarding `N.S=C(S)N1CCCC1` [PYRROLIDINE DITHIOCARBAMIC ACID, AMMONIUM SALT], the MIC in test [1], in test [2], in test [3], in test [4], in [5] and in test [6] was 0.2 µg/mL in each case. Besides, the MIC in test [7] came to 0.2 µg/mL; in test [8] it was 0.2 µg/mL; in [9], 0.4 µg/mL; in [10] it was 0.2 µg/mL; in [11] it was 0.2 µg/mL; in test [12], 0.2 µg/mL. Also, the minimum inhibitory concentration (MIC) in test [13] was 0.2 µg/mL; in test [14], 0.2 µg/mL; in test [15] it was 0.2 µg/mL; in [16], 0.2 µg/mL; in [17] it was 0.2 µg/mL; in test [18], 0.4 µg/mL. Further, the MIC was 0.4 µg/mL in [19] and 0.2 µg/mL in [20].
